From US20260191861A1, “INFLAMMASOME AND VEGF INHIBITION FOR RETINAL VASCULAR DISEASES” (University of Virginia Patent Foundation, priority 2022, published 2026)

How the values were obtained:
[1] = system: participants with diabetic macular edema; assay: Retinal central subfield thickness by spectral-domain OCT, including synthetic controls from DRCR.net Protocol T; type: in vivo, human
Method: Propensity score methods were used to select DRCR.net Protocol T study participants similar to lamivudine-treated patients. Inverse probability treatment weights (IPTW) and propensity score matching were used. To estimate the IPTW weights, a multinomial logistic regression was used to estimate propensity scores using important predictors including baseline visual acuity and baseline central subfield thickness along with age, gender, and duration of diabetes. Weights were calculated as the reciprocal of the estimated propensity score of the actual treatment received. Weights were then truncated at the 99th percentile. For the propensity score matched analysis, lamivudine-treated patients were matched to each DRCR.net Protocol T treatment arm (aflibercept, bevacizumab, ranibizumab) and placebo group, separately. Due to the limited sample size for matching within each group, propensity score models included the most important predictors of acuity change including baseline visual acuity, age and duration of diabetes.
For the IPTW analysis, a mixed-effects weighted model was fit with subject-specific random effects. […] The model's estimates, confidence intervals (CI), and P values were reported for each predictor. Additionally, model-based contrasts were conducted to compare the change in VALS from baseline between lamivudine and the Protocol T treatments.
(§1) Secondary outcomes included the change in central subfield thickness, the percentage of eyes with an improvement in VALS of 15 or more, the correlation between improvements in visual acuity and central subfield thickness, and systemic and ocular adverse events. Change in central subfield thickness was estimated using mixed-effects models, similar to the VALS analysis. To analyze a VALS improvement of at least 15 letters, logistic regression using generalized estimating equations (GEEs) was specified with an exchangeable correlation matrix. Model-based contrasts were estimated to make pairwise treatment comparisons.
In all consultations, patients underwent tomography with the Spectralis device (Heidelberg) under mydriasis. The acquisition protocol was the 6×6 mm region centered on the fovea. Data analysis from SD-OCT was restricted to the central field (1 mm in diameter) Intravitreous Injection of Anti-VEGF

[2] = system: participants with diabetic macular edema; assay: Systemic and ocular adverse events in the lamivudine versus placebo trial; type: in vivo, human
Source text: If the participant developed high-risk proliferative diabetic retinopathy or had to undergo any ocular surgery during the study period, they would be excluded. Patients were monitored for adverse events by the assessing physician, and new laboratory tests could be performed at the physician's discretion.
as §1

[3] = ocular adverse event, of 16 eyes
[4] = systemic adverse event, of 10 subjects

Structure (SMILES): Nc1ccn([C@@H]2CS[C@H](CO)O2)c(=O)n1 [Lamivudine]
- IPTW mixed-effect model: change in central subfield thickness, Treatment × week [8] estimate ([1]; IPTW model, interaction term): 41.98 μm
- IPTW mixed-effect model: change in central subfield thickness from baseline, treatment estimate (ref = Placebo) ([1]; IPTW model, main effect (week 4)): −48.84 μm
- IPTW contrast: change in central subfield thickness, Lamivudine vs Bevacizumab ([1]; week 4): 17.5 μm
- IPTW contrast: change in central subfield thickness, Lamivudine vs Placebo ([1]; week 4): −48.84 μm
- IPTW contrast: change in central subfield thickness, Lamivudine vs. Aflibercept ([1]; week 4): 55.49 μm
- IPTW contrast: change in central subfield thickness, Lamivudine vs. Ranibizumab ([1]; week 4): 64.83 μm
- IPTW contrast: change in central subfield thickness, Lamivudine vs. Aflibercept ([1]; week 4, listed as lamivudine): 55 μm
- IPTW contrast: change in central subfield thickness, Lamivudine vs. Ranibizumab ([1]; week 4, listed as lamivudine): 65 μm
- IPTW contrast: change in central subfield thickness, Lamivudine vs Bevacizumab ([1]; week 8): −15.34 μm
- IPTW contrast: change in central subfield thickness, Lamivudine vs Placebo ([1]; week 8): −6.86 μm
- IPTW contrast: change in central subfield thickness, Lamivudine vs. Aflibercept ([1]; week 8): 28.93 μm
- IPTW contrast: change in central subfield thickness, Lamivudine vs. Ranibizumab ([1]; week 8): 31.81 μm
- Propensity score matched contrast: change in central subfield thickness, Lamivudine vs. Aflibercept ([1]; week 4): 92.6 μm
- Propensity score matched contrast: change in central subfield thickness, Lamivudine vs. Bevacizumab ([1]; week 4): 12.6 μm
- Propensity score matched contrast: change in central subfield thickness, Lamivudine vs. Placebo ([1]; week 4): −47.7 μm
- Propensity score matched contrast: change in central subfield thickness, Lamivudine vs. Ranibizumab ([1]; week 4): 115.7 μm
- Propensity score matched contrast: change in central subfield thickness, Lamivudine vs. Aflibercept ([1]; week 4, listed as lamivudine): 93 μm
- Propensity score matched contrast: change in central subfield thickness, Lamivudine vs. Ranibizumab ([1]; week 4, listed as lamivudine): 116 μm
- Propensity score matched contrast: change in central subfield thickness, Lamivudine vs. Aflibercept ([1]; week 8): 21.2 μm
- Propensity score matched contrast: change in central subfield thickness, Lamivudine vs. Bevacizumab ([1]; week 8): −63.4 μm
- Propensity score matched contrast: change in central subfield thickness, Lamivudine vs. Placebo ([1]; week 8): −38.1 μm
- Propensity score matched contrast: change in central subfield thickness, Lamivudine vs. Ranibizumab ([1]; week 8): 37.1 μm
- Mixed-effect model: change in central subfield thickness, Treatment × week [8] estimate ([1]; unweighted model, interaction term): 3.8 μm
- Mixed-effect model: change in central subfield thickness from baseline, treatment estimate (ref = Placebo) ([1]; unweighted model, main effect (week 4)): −44.91 μm
- Contrast: change in central subfield thickness, Lamivudine vs Bevacizumab ([1]; unweighted model, week 4): 30.65 μm
- Contrast: change in central subfield thickness, Lamivudine vs Placebo ([1]; unweighted model, week 4): −44.91 μm
- Contrast: change in central subfield thickness, Lamivudine vs. Aflibercept ([1]; unweighted model, week 4): 69.64 μm
- Contrast: change in central subfield thickness, Lamivudine vs. Ranibizumab ([1]; unweighted model, week 4): 77.22 μm
- Contrast: change in central subfield thickness, Lamivudine vs Bevacizumab ([1]; unweighted model, week 8): −50.42 μm
- Contrast: change in central subfield thickness, Lamivudine vs Placebo ([1]; unweighted model, week 8): −41.1 μm
- Contrast: change in central subfield thickness, Lamivudine vs. Aflibercept ([1]; unweighted model, week 8): −1.39 μm
- Contrast: change in central subfield thickness, Lamivudine vs. Ranibizumab ([1]; unweighted model, week 8): −4.66 μm
- percentage of eyes with VALS improvement of 15 or more that had minimal improvement in central subfield thickness (≤50 μm) ([1]; week 8, lamivudine group): 64%
- Endophthalmitis - (%) [2, 3]: (0%)
- Endophthalmitis - N [2, 3]: 0
- Increase in intraocular pressure ≥10 mm Hg from baseline - (%) [2, 3]: (0%)
- Increase in intraocular pressure ≥10 mm Hg from baseline - N [2, 3]: 0
- Intraocular inflammation* - (%) [2, 3]: (0%)
- Intraocular inflammation* - N [2, 3]: 0
- Retinal detachment - (%) [2, 3]: (0%)
- Retinal detachment - N [2, 3]: 0
- Subconjunctival hemorrhage - (%) [2, 3]: (18.8%)
- Subconjunctival hemorrhage - N [2, 3]: 3
- Traumatic cataract - (%) [2, 3]: (0%)
- Traumatic cataract - N [2, 3]: 0
- Vitreous hemorrhage - (%) [2, 3]: (0%)
- Vitreous hemorrhage - N [2, 3]: 0
- Abdominal pain - (%) [2, 4]: (0%)
- Abdominal pain - N [2, 4]: 0
- Alopecia - (%) [2, 4]: (0%)
- Alopecia - N [2, 4]: 0
- Arthralgia - (%) [2, 4]: (0%)
- Arthralgia - N [2, 4]: 0
- Diarrhea - (%) [2, 4]: (10%)
- Diarrhea - N [2, 4]: 1
- Disphoresis - (%) [2, 4]: (10%)
- Disphoresis - N [2, 4]: 1
- Fatigue - (%) [2, 4]: (10%)
- Fatigue - N [2, 4]: 1
- Headache - (%) [2, 4]: (20%)
- Headache - N [2, 4]: 2
- Myalgia - (%) [2, 4]: (0%)
- Myalgia - N [2, 4]: 0
- Nausea or vomiting - (%) [2, 4]: (20%)
- Nausea or vomiting - N [2, 4]: 2
- Pruritus - (%) [2, 4]: (20%)
- Pruritus - N [2, 4]: 2
- Skin rash - (%) [2, 4]: (0%)
- Skin rash - N [2, 4]: 0
- ocular adverse events ([2]; week 4): no ocular adverse events
- subconjunctival hemorrhage after intravitreous injection ([2]; week 8): three
